Experimental data reported in ChEMBL document CHEMBL4507320, “Data for DCP probe NVS-MALT1” (2021).
Active and inactive are the calls of the source. No cut-off for these calls is given here.

Legend:
[1] = target: Serine/threonine-protein kinase ULK1 (Homo sapiens) (UniProt O75385); conditions: Compound concentration 1000.0 nM
[2] = target: T1, Mucosa-associated lymphoid tissue lymphoma translocation protein 1 (Homo sapiens, UniProt Q9UDY8); experiment: Jurkat IL-2 (IL2-RGA PMA + anti-CD28); type: cell-based
T1 sequence (Q9UDY8 whole entry): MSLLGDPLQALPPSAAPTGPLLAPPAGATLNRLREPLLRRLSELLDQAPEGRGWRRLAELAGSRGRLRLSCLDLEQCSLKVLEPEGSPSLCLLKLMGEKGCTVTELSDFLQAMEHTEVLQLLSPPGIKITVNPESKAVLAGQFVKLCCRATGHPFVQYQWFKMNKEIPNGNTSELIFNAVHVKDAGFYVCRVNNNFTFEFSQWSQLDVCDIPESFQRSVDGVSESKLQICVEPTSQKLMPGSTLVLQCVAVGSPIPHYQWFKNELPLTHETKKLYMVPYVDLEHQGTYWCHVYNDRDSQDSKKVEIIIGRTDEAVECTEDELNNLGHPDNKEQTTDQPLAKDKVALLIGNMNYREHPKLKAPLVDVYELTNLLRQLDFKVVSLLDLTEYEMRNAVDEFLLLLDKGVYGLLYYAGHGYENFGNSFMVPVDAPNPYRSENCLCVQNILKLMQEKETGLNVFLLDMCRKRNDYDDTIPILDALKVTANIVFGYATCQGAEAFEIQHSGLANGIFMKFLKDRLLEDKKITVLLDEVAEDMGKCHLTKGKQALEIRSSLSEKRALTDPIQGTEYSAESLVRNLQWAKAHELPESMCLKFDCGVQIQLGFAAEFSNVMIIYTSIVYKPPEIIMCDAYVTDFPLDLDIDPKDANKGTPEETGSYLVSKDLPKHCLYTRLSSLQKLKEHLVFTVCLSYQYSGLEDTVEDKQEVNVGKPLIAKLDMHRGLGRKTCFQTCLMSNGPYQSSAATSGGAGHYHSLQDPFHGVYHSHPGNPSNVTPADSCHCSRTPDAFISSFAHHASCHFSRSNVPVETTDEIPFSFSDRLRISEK

[3] = target: Tyrosine-protein kinase JAK1 (Homo sapiens) (UniProt P23458); conditions: Compound concentration 1000.0 nM
[4] = test system: Mast/stem cell growth factor receptor Kit (Homo sapiens), P10721 [V559D,T670I]; conditions: Compound concentration 1000.0 nM
Chain of Mast/stem cell growth factor receptor Kit (Homo sapiens), P10721 [V559D,T670I] (P10721 whole entry V559D/T670I): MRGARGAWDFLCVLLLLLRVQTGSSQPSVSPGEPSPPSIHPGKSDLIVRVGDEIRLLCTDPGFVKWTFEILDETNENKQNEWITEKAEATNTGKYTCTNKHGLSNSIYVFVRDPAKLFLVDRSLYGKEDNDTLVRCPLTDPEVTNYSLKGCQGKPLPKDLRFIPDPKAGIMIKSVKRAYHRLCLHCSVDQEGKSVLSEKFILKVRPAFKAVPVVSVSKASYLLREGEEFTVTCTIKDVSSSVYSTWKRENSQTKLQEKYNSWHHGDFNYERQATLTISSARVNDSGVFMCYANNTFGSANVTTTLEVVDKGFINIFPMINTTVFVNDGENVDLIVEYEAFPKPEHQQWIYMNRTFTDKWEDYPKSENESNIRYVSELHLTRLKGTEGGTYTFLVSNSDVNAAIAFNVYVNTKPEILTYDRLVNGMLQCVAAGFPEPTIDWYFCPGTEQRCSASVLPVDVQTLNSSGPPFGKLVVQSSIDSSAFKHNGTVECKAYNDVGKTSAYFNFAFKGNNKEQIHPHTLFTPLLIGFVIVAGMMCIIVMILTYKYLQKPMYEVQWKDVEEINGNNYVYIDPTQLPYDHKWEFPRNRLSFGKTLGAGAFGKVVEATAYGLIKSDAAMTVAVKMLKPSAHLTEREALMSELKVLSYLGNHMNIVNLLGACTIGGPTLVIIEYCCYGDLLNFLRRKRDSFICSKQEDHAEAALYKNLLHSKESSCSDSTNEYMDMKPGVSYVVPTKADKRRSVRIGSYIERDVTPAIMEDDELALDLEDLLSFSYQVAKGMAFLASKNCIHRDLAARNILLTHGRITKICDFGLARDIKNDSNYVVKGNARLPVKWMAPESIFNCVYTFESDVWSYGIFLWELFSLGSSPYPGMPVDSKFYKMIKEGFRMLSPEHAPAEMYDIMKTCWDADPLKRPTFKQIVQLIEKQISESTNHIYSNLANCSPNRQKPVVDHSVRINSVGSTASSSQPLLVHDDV

[5] = target: Tyrosine-protein kinase FRK (Homo sapiens) (UniProt P42685); conditions: Compound concentration 1000.0 nM
[6] = target: Bone morphogenetic protein receptor type-1A (Homo sapiens) (UniProt P36894); conditions: Compound concentration 1000.0 nM
[7] = target: Cyclin-dependent kinase 16 (Homo sapiens) (UniProt Q00536); conditions: Compound concentration 1000.0 nM
Chain of Cyclin-dependent kinase 16 (Homo sapiens) (Q00536 whole entry): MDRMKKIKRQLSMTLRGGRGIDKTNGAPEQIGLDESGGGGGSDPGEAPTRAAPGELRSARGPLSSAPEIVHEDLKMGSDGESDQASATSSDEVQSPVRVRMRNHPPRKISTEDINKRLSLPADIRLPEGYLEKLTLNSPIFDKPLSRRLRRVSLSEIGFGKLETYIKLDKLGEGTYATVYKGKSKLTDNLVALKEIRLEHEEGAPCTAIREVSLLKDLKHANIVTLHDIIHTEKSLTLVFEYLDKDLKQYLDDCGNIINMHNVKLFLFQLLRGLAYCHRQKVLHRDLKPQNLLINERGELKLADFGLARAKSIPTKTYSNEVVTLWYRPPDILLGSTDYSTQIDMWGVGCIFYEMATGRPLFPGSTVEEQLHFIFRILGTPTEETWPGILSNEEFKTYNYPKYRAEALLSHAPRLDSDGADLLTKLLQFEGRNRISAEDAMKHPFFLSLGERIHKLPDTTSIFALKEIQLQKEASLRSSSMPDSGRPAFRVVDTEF

[8] = target: Vascular endothelial growth factor receptor 3 (Homo sapiens) (UniProt P35916); conditions: Compound concentration 1000.0 nM
Chain of Vascular endothelial growth factor receptor 3 (Homo sapiens) (P35916 whole entry): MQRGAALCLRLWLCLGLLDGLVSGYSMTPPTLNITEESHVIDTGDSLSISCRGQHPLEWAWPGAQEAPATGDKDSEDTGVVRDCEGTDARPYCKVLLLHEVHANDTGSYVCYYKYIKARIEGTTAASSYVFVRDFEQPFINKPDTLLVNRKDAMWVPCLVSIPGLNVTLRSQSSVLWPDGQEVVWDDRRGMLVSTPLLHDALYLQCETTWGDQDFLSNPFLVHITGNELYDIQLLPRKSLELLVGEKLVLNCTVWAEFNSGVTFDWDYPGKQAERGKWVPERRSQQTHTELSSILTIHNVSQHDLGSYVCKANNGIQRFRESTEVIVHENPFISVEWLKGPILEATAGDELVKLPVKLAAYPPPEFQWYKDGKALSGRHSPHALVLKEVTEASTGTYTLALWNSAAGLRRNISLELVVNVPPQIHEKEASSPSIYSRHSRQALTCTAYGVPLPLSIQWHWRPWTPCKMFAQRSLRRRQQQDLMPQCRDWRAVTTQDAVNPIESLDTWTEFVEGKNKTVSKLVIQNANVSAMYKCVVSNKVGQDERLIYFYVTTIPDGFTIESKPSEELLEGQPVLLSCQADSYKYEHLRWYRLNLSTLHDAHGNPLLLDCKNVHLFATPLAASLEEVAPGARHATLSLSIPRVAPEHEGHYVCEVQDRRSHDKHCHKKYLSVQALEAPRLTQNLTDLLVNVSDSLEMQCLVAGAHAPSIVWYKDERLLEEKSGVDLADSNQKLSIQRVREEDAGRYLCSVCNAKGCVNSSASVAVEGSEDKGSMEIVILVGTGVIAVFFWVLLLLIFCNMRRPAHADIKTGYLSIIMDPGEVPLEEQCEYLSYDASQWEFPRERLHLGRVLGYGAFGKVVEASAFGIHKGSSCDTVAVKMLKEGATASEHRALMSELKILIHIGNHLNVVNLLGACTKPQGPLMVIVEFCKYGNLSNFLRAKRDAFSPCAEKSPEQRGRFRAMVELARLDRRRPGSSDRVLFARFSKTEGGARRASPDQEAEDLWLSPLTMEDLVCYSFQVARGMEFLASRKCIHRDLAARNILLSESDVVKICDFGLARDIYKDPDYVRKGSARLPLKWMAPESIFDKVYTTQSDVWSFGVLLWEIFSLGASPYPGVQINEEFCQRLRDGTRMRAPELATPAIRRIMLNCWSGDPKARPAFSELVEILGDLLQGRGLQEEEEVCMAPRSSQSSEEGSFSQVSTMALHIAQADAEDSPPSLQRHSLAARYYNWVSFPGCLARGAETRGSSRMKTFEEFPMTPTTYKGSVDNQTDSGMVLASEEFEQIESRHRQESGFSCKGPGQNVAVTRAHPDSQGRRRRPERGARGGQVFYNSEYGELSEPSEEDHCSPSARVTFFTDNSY

[9] = target: Mitogen-activated protein kinase 8 (Homo sapiens) (UniProt P45983); conditions: Compound concentration 1000.0 nM
[10] = target: Vascular endothelial growth factor receptor 2 (Homo sapiens) (UniProt P35968); conditions: Compound concentration 1000.0 nM
[11] = target: Ribosomal protein S6 kinase alpha-6 (Homo sapiens) (UniProt Q9UK32); conditions: Compound concentration 1000.0 nM
[12] = target: Serine/threonine-protein kinase WNK2 (Homo sapiens) (UniProt Q9Y3S1); conditions: Compound concentration 1000.0 nM
[13] = target: Serine/threonine-protein kinase PAK 6 (Homo sapiens) (UniProt Q9NQU5); conditions: Compound concentration 1000.0 nM
[14] = target: Cyclin-dependent kinase 11B (Homo sapiens) (UniProt P21127); conditions: Compound concentration 1000.0 nM
[15] = test system: Receptor-type tyrosine-protein kinase FLT3 (Homo sapiens), P36888 [D835V]; conditions: Compound concentration 1000.0 nM
[16] = target: Insulin receptor-related protein (Homo sapiens) (UniProt P14616); conditions: Compound concentration 1000.0 nM
[17] = target: Serine/threonine-protein kinase/endoribonuclease IRE1 (Homo sapiens) (UniProt O75460); conditions: Compound concentration 1000.0 nM
[18] = target: Serine/threonine-protein kinase Sgk3 (Homo sapiens) (UniProt Q96BR1); conditions: Compound concentration 1000.0 nM
[19] = target: Misshapen-like kinase 1 (Homo sapiens) (UniProt Q8N4C8); conditions: Compound concentration 1000.0 nM
[20] = target: Calcium/calmodulin-dependent protein kinase type II subunit gamma (Homo sapiens) (UniProt Q13555); conditions: Compound concentration 1000.0 nM
[21] = target: Phosphatidylinositol 4,5-bisphosphate 3-kinase catalytic subunit alpha isoform (Homo sapiens) (UniProt P42336); conditions: Compound concentration 1000.0 nM
Chain of Phosphatidylinositol 4,5-bisphosphate 3-kinase catalytic subunit alpha isoform (Homo sapiens) (P42336 whole entry, canonical isoform): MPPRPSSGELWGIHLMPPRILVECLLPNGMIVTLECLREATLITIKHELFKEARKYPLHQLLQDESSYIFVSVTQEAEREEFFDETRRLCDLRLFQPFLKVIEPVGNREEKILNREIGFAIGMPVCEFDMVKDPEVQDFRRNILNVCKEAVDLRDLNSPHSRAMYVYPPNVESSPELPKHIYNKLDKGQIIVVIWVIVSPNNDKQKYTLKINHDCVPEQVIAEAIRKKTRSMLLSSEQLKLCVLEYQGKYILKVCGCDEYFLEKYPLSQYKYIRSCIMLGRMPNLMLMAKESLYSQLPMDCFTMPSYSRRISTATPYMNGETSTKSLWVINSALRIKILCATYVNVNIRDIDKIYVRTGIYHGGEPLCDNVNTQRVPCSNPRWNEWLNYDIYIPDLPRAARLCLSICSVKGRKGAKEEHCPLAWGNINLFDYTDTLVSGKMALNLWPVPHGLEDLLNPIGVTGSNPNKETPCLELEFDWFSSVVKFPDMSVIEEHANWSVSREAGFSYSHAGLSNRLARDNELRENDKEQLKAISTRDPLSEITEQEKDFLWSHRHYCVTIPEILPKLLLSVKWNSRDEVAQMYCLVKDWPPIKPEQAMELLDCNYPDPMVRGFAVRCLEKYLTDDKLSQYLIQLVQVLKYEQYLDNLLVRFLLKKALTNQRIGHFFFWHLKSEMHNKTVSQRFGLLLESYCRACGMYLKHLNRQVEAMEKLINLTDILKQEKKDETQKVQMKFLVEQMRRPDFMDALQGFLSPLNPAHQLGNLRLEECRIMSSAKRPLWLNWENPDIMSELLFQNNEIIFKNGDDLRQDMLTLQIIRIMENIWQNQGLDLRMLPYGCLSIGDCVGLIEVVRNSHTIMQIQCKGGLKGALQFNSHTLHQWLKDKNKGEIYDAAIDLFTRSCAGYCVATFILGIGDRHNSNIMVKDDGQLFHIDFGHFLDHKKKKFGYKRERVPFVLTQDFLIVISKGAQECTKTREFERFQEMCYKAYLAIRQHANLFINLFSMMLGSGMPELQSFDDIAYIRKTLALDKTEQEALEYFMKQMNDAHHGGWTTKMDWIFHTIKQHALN

[22] = target: Serine/threonine-protein kinase Nek10 (Homo sapiens) (UniProt Q6ZWH5); conditions: Compound concentration 1000.0 nM
[23] = test system: Mast/stem cell growth factor receptor Kit (Homo sapiens), P10721 [V559D]; conditions: Compound concentration 1000.0 nM
Chain of Mast/stem cell growth factor receptor Kit (Homo sapiens), P10721 [V559D] (P10721 whole entry V559D): as the sequence (P10721 whole entry V559D/T670I) above, with I670T counted along it

[24] = target: Platelet-derived growth factor receptor alpha (Homo sapiens) (UniProt P16234); conditions: Compound concentration 1000.0 nM
[25] = target: 1-phosphatidylinositol 3-phosphate 5-kinase (Homo sapiens) (UniProt Q9Y2I7); conditions: Compound concentration 1000.0 nM
[26] = target: Mitotic checkpoint serine/threonine-protein kinase BUB1 (Homo sapiens) (UniProt O43683); conditions: Compound concentration 1000.0 nM
[27] = target: Mitogen-activated protein kinase kinase kinase 4 (Homo sapiens) (UniProt Q9Y6R4); conditions: Compound concentration 1000.0 nM
[28] = target: Alpha-1D adrenergic receptor (Homo sapiens) (UniProt P25100); conditions: Compound concentration 10.0 uM
Chain of Alpha-1D adrenergic receptor (Homo sapiens) (P25100 whole entry): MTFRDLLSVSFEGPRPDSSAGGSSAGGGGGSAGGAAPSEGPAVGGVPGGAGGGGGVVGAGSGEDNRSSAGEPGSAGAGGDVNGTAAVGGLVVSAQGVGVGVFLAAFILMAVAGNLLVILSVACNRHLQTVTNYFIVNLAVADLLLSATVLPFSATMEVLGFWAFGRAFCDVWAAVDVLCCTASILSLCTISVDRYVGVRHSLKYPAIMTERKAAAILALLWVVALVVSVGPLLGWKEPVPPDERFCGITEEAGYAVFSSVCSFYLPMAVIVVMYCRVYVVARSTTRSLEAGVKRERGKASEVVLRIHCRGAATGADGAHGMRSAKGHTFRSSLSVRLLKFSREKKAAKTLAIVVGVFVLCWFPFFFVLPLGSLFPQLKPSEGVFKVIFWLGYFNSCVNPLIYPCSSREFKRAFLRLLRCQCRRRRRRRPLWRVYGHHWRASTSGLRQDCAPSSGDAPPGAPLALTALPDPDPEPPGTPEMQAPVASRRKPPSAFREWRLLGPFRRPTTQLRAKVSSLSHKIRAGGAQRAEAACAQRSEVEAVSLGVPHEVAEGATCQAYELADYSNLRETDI

[29] = target: Ribosomal protein S6 kinase alpha-1 (Homo sapiens) (UniProt Q15418); conditions: Compound concentration 1000.0 nM
[30] = target: Serine/threonine-protein kinase 32A (Homo sapiens) (UniProt Q8WU08); conditions: Compound concentration 1000.0 nM
Chain of Serine/threonine-protein kinase 32A (Homo sapiens) (Q8WU08 whole entry): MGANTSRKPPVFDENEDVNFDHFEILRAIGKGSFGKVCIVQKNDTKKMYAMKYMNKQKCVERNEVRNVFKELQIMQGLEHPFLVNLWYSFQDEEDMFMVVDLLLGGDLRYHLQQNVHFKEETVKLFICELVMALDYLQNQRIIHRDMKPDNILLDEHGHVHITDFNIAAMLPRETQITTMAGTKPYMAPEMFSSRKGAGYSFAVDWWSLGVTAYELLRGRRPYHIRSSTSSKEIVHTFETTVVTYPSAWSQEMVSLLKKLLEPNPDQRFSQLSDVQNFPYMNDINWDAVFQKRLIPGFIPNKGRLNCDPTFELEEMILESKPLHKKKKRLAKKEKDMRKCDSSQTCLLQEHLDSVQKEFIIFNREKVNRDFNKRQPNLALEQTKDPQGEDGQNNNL

[31] = target: Dual specificity mitogen-activated protein kinase kinase 6 (Homo sapiens) (UniProt P52564); conditions: Compound concentration 1000.0 nM
[32] = target: Peripheral plasma membrane protein CASK (Homo sapiens) (UniProt O14936); conditions: Compound concentration 1000.0 nM
[33] = target: Inhibitor of nuclear factor kappa-B kinase subunit epsilon (Homo sapiens) (UniProt Q14164); conditions: Compound concentration 1000.0 nM

CO[C@@H](C)c1c(Nc2ccc([C@@H](N(C)C(=O)C3CCS(=O)(=O)CC3)C(F)(F)F)cc2)cnc2cc(Cl)nn12 [NVS-MALT1-C]
residual activity [1]: 100% | IC50 [2]: 1.9 µM (active) | residual activity [3]: 89% | residual activity [4]: 82% | residual activity [5]: 91% | residual activity [6]: 100% | residual activity [7]: 72% | residual activity [8]: 84% | residual activity [9]: 69% | residual activity [10]: 95% | residual activity [11]: 98% | residual activity [12]: 100% | residual activity [13]: 100% | residual activity [14]: 100% | residual activity [15]: 52% | residual activity [16]: 89% | residual activity [17]: 100% | residual activity [18]: 100% | residual activity [19]: 100% | residual activity [20]: 84% | residual activity [21]: 92% | residual activity [22]: 100% | residual activity [23]: 100% | residual activity [24]: 100% | residual activity [25]: 65% | residual activity [26]: 100% | residual activity [27]: 89% | inhibition [28]: 3.2% | residual activity [29]: 99% | residual activity [30]: 100% | residual activity [31]: 92% | residual activity [32]: 100% | residual activity [33]: 100%

CO[C@@H](C)c1c(Nc2ccc([C@H](N(C)C(=O)C3CCS(=O)(=O)CC3)C(F)(F)F)cc2)cnc2cc(Cl)nn12 [NVS-MALT1]
residual activity [1]: 100% | IC50 [2]: 0.0034 µM (active) | residual activity [3]: 100% | residual activity [4]: 86% | residual activity [5]: 80% | residual activity [6]: 71% | residual activity [7]: 66% | residual activity [8]: 89% | residual activity [9]: 86% | residual activity [10]: 100% | residual activity [11]: 91% | residual activity [12]: 98% | residual activity [13]: 100% | residual activity [14]: 88% | residual activity [15]: 59% | residual activity [16]: 94% | residual activity [17]: 91% | residual activity [18]: 100% | residual activity [19]: 100% | residual activity [20]: 77% | residual activity [21]: 94% | residual activity [22]: 100% | residual activity [23]: 100% | residual activity [24]: 100% | residual activity [25]: 54% | residual activity [26]: 100% | residual activity [27]: 89% | inhibition [28]: -6.69% | residual activity [29]: 91% | residual activity [30]: 100% | residual activity [31]: 91% | residual activity [32]: 100% | residual activity [33]: 100%
